Results reported in patent publication EP4806435A1, “DIHYDROCHROMENE-DERIVATIVE-CONTAINING THERAPEUTIC AGENT FOR CANCER” (Sumitomo Pharma Co., Ltd., priority 2023, dated 2025).

Tested on: patients with recurrent malignant glioma classified as WHO grade III or IV
Assay: Phase 1 dose-escalation clinical trial: safety (TEAEs, DLTs, MTD);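 also: dosing continued until unacceptable toxicity, consent withdrawal, loss to follow-up or investigator/sponsor decision, with cohorts of 1-6 patients per dose level and MTD estimated by BLRM from cumulative DLT data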
[1] = 180 mg QD (N=6), cutoff April 21, 2024
[2] = 240 mg (N=5), cutoff April 21, 2023
[3] = 240 mg QD (N=6), cutoff April 21, 2024
[4] = 360 mg QD (N=6), cutoff April 21, 2024
[5] = 480 mg daily (240 mg BID) (N=6), cutoff April 21, 2024
[6] = 480 mg daily [240 mg BID] group, cutoff April 21, 2024
[7] = N=23 (n=2), cutoff April 21, 2023
[8] = N=39 (n=2), cutoff April 21, 2024
[9] = N=39 (n=3), cutoff April 21, 2024
[10] = Total (N=23), cutoff April 21, 2023
[11] = Total (N=39), cutoff April 21, 2024

Procedure: Administration to each subject was continued until unacceptable toxicity occurred, consent was withdrawn, the subject was lost to follow-up, or discontinuation was determined by the investigator and/or the sponsor.
The present study consists of two parts: a dose-escalation part (Part 1) and a dose-expansion part (Part 2).
Each dose level was evaluated in cohorts of 1-6 patients. In all cohorts, administration of the investigational drug to the second and subsequent patients was permitted after completion of all safety assessments on Day 8 of Cycle 1 in the first patient. […] At dose level 2 in the dose-escalation part, at least three patients were required to be evaluated before escalation to a higher dose level. After completion of each cohort, the probability of observing a DLT at each dose level in the present study was updated using the BLRM based on cumulative data from the preceding cohorts, and the MTD was estimated.

## CC1(C)Oc2cc(Cl)ccc2[C@@H]2OCC3(CCN(CCn4ccnc4)CC3)C[C@H]21 [Compound 1, (4'aR,10'bR)-8'-chloro-1-[2-(1H-imidazol-1-yl)ethyl]-5',5'-dimethyl-4'a,10'b-dihydro-2'H,4'H,5'H-spiro[piperidine-4,3'-pyrano[3,2-c][1]benzopyran] diphosphate]
[1]
  TEAE: alopecia: 1 (16.7) n (%)
  TEAE: constipation: 2 (33.3) n (%)
  TEAE: decreased appetite: 1 (16.7) n (%)
  TEAE: decreased lymphocyte count: 1 (16.7) n (%)
  TEAE: decreased neutrophil count: 0 n (%)
  TEAE: decreased platelet count: 1 (16.7) n (%)
  TEAE: diarrhea: 1 (16.7) n (%)
  TEAE: dry skin: 1 (16.7) n (%)
  TEAE: fall: 2 (33.3) n (%)
  TEAE: fatigue: 0 n (%)
  TEAE: headache: 0 n (%)
  TEAE: hypertrigly-ceridaemia: 1 (16.7) n (%)
  TEAE: hyponatremia: 0 n (%)
  TEAE: increase in blood cholesterol: 0 n (%)
  TEAE: increased alanine aminotransferase: 4 (66.7) n (%)
  TEAE: increased aspartate aminotransferase: 2 (33.3) n (%)
  TEAE: maculopapular rash: 0 n (%)
  TEAE: nausea: 2 (33.3) n (%)
  TEAE: seizure: 2 (33.3) n (%)
  TEAE: vomiting: 2 (33.3) n (%)
[2]
  Number of patients with any TEAE: 5 (100) n (%)
  TEAE: constipation: 3 (60.0) n (%)
  TEAE: decreased appetite: 1 (20.0) n (%)
  TEAE: decreased lymphocyte count: 2 (40.0) n (%)
  TEAE: decreased neutrophil count: 0 n (%)
  TEAE: decreased platelet count: 0 n (%)
  TEAE: decreased white blood cell count: 0 n (%)
  TEAE: dry skin: 3 (60.0) n (%)
  TEAE: fall: 0 n (%)
  TEAE: headache: 3 (60.0) n (%)
  TEAE: hypertrigly-ceridaemia: 1 (20.0) n (%)
  TEAE: hyponatremia: 0 n (%)
  TEAE: increased alanine aminotransferase: 4 (80.0) n (%)
  TEAE: increased aspartate aminotransferase: 2 (40.0) n (%)
  TEAE: nausea: 3 (60.0) n (%)
  TEAE: seizure: 1 (20.0) n (%)
  TEAE: vomiting: 2 (40.0) n (%)
240 mg BID, dose as the present compound
  maximum tolerated dose (MTD): 480 mg daily
[3]
  Number of Patients with Any TEAE: 6 (100) n (%)
  TEAE: Confusional state: 1 (16.7) n (%)
  TEAE: Gait disturbance: 0 n (%)
  TEAE: Gastrointestinal disorder: 0 n (%)
  TEAE: Hiccups: 0 n (%)
  TEAE: Tremor: 0 n (%)
  TEAE: alopecia: 1 (16.7) n (%)
  TEAE: constipation: 3 (50.0) n (%)
  TEAE: decreased appetite: 2 (33.3) n (%)
  TEAE: decreased lymphocyte count: 2 (33.3) n (%)
  TEAE: decreased neutrophil count: 0 n (%)
  TEAE: decreased platelet count: 0 n (%)
  TEAE: diarrhea: 1 (16.7) n (%)
  TEAE: dry skin: 4 (66.7) n (%)
  TEAE: fall: 0 n (%)
  TEAE: fatigue: 1 (16.7) n (%)
  TEAE: headache: 4 (66.7) n (%)
  TEAE: hypertrigly-ceridaemia: 1 (16.7) n (%)
  TEAE: hyponatremia: 0 n (%)
  TEAE: increase in blood cholesterol: 1 (16.7) n (%)
  TEAE: increased alanine aminotransferase: 6 (100) n (%)
  TEAE: increased aspartate aminotransferase: 2 (33.3) n (%)
  TEAE: maculopapular rash: 0 n (%)
  TEAE: nausea: 4 (66.7) n (%)
  TEAE: seizure: 1 (16.7) n (%)
  TEAE: vomiting: 2 (33.3) n (%)
240 mg QD group, cutoff April 21, 2024
  serious TEAE: neoplasm progression: one
240 mg group, cutoff April 21, 2023
  serious TEAE: neoplasm progression: one
[4]
  Number of Patients with Any TEAE: 6 (100) n (%)
  TEAE: Confusional state: 0 n (%)
  TEAE: Gait disturbance: 1 (16.7) n (%)
  TEAE: Gastrointestinal disorder: 1 (16.7) n (%)
  TEAE: Hiccups: 0 n (%)
  TEAE: Tremor: 2 (33.3) n (%)
  TEAE: alopecia: 2 (33.3) n (%)
  TEAE: constipation: 2 (33.3) n (%)
  TEAE: decreased appetite: 1 (16.7) n (%)
  TEAE: decreased lymphocyte count: 0 n (%)
  TEAE: decreased neutrophil count: 1 (16.7) n (%)
  TEAE: decreased platelet count: 1 (16.7) n (%)
  TEAE: diarrhea: 2 (33.3) n (%)
  TEAE: dry skin: 0 n (%)
  TEAE: fall: 2 (33.3) n (%)
  TEAE: fatigue: 3 (50.0) n (%)
  TEAE: headache: 1 (16.7) n (%)
  TEAE: hypertrigly-ceridaemia: 1 (16.7) n (%)
  TEAE: hyponatremia: 1 (16.7) n (%)
  TEAE: increase in blood cholesterol: 2 (33.3) n (%)
  TEAE: increased alanine aminotransferase: 4 (66.7) n (%)
  TEAE: increased aspartate aminotransferase: 3 (50.0) n (%)
  TEAE: maculopapular rash: 1 (16.7) n (%)
  TEAE: nausea: 6 (100) n (%)
  TEAE: seizure: 0 n (%)
  TEAE: vomiting: 4 (66.7) n (%)
360 mg QD, cutoff April 21, 2024
  DLT (Grade 3 maculopapular rash; recovered to Grade 1 with treatment interruption): one
360 mg cohort, as of September 2023
  DLT: Grade 3 maculo-papular rash (recovered to grade 1 with dose interruption): one and One
[5]
  Number of Patients with Any TEAE: 6 (100) n (%)
  TEAE: Confusional state: 2 (33.3) n (%)
  TEAE: Gait disturbance: 2 (33.3) n (%)
  TEAE: Gastrointestinal disorder: 1 (16.7) n (%)
  TEAE: Hiccups: 2 (33.3) n (%)
  TEAE: Tremor: 0 n (%)
  TEAE: alopecia: 1 (16.7) n (%)
  TEAE: constipation: 1 (16.7) n (%)
  TEAE: decreased appetite: 1 (16.7) n (%)
  TEAE: decreased lymphocyte count: 1 (16.7) n (%)
  TEAE: decreased neutrophil count: 0 n (%)
  TEAE: decreased platelet count: 0 n (%)
  TEAE: diarrhea: 0 n (%)
  TEAE: dry skin: 3 (50.0) n (%)
  TEAE: fall: 3 (50.0) n (%)
  TEAE: fatigue: 2 (33.3) n (%)
  TEAE: headache: 0 n (%)
  TEAE: hypertrigly-ceridaemia: 0 n (%)
  TEAE: hyponatremia: 1 (16.7) n (%)
  TEAE: increase in blood cholesterol: 1 (16.7) n (%)
  TEAE: increased alanine aminotransferase: 5 (83.3) n (%)
  TEAE: increased aspartate aminotransferase: 2 (33.3) n (%)
  TEAE: maculopapular rash: 3 (50.0) n (%)
  TEAE: nausea: 2 (33.3) n (%)
  TEAE: seizure: 1 (16.7) n (%)
  TEAE: vomiting: 3 (50.0) n (%)
480 mg daily (240 mg BID), cutoff April 21, 2024
  patients with DLTs (Grade 3 maculopapular rash; Grade 2 nausea and vomiting): two
[6]
  serious TEAE: confusional state: one
  serious TEAE: fatigue: one
N=23 (6 patients), cutoff April 21, 2023
  patients with serious TEAEs: 26.1%
N=23 (13 patients), cutoff April 21, 2023
  patients with Grade ≥3 TEAEs: 56.5%
N=23 (16 patients), cutoff April 21, 2023
  patients with TEAEs considered to be related to the study drug: 69.6%
[7]
  Grade ≥3 TEAE: aphasia: 8.7%
  Grade ≥3 TEAE: decreased lymphocyte count: 8.7%
  Grade ≥3 TEAE: decreased white blood cell count: 8.7%
  Grade ≥3 TEAE: headache: 8.7%
N=23 (n=3), cutoff April 21, 2023
  Grade ≥3 TEAE: decreased neutrophil count: 13.0%
N=23 (n=4), cutoff April 21, 2023
  Grade ≥3 TEAE: seizure: 17.4%
N=23, 40 mg and 240 mg groups, cutoff April 21, 2023
  patients who died during the study due to TEAEs (assessed as not related): two
N=23, cutoff April 21, 2023
  Grade ≥3 TEAE considered related to Compound 1 (dry skin): one
  relatedness of serious TEAEs to Compound 1: None of these serious TEAEs were considered to be related to Compound 1
N=39 (9 patients), cutoff April 21, 2024
  patients with serious TEAEs: 23.1%
N=39 (23 patients), cutoff April 21, 2024
  patients with Grade ≥3 TEAEs: 59.0%
N=39 (30 patients), cutoff April 21, 2024
  patients with TEAEs considered to be related to the study drug: 76.9%
N=39 (n=1), cutoff April 21, 2024
  Grade ≥3 TEAE considered related to Compound 1: fatigue: 2.6%
[8]
  Grade ≥3 TEAE considered related to Compound 1: dry skin: 5.1%
  Grade ≥3 TEAE considered related to Compound 1: maculopapular rash: 5.1%
  Grade ≥3 TEAE: decreased white blood cell count: 5.1%
  Grade ≥3 TEAE: dry skin: 5.1%
  Grade ≥3 TEAE: increased alanine aminotransferase: 5.1%
  Grade ≥3 TEAE: maculopapular rash: 5.1%
[9]
  Grade ≥3 TEAE: aphasia: 7.7%
  Grade ≥3 TEAE: decreased lymphocyte count: 7.7%
  Grade ≥3 TEAE: decreased neutrophil count: 7.7%
  Grade ≥3 TEAE: headache: 7.7%
N=39 (n=4), cutoff April 21, 2024
  Grade ≥3 TEAE: fatigue: 10.3%
N=39 (n=5), cutoff April 21, 2024
  Grade ≥3 TEAE: seizure: 12.8%
N=39, 40 mg QD and 240 mg QD groups, cutoff April 21, 2024
  patients who died during the study due to TEAEs: Two
N=39, cutoff April 21, 2024
  serious TEAEs considered to be related to Compound 1: nine and None of these serious TEAEs were considered to be related to Compound 1
[10]
  Number of patients with any TEAE: 23 (100) n (%)
  TEAE: constipation: 7 (30.4) n (%)
  TEAE: decreased appetite: 3 (13.0) n (%)
  TEAE: decreased lymphocyte count: 5 (21.7) n (%)
  TEAE: decreased neutrophil count: 6 (26.1) n (%)
  TEAE: decreased platelet count: 4 (17.4) n (%)
  TEAE: decreased white blood cell count: 3 (13.0) n (%)
  TEAE: dry skin: 5 (21.7) n (%)
  TEAE: fall: 3 (13.0) n (%)
  TEAE: headache: 7 (30.4) n (%)
  TEAE: hypertrigly-ceridaemia: 4 (17.4) n (%)
  TEAE: hyponatremia: 3 (13.0) n (%)
  TEAE: increased alanine aminotransferase: 12 (52.2) n (%)
  TEAE: increased aspartate aminotransferase: 6 (26.1) n (%)
  TEAE: nausea: 11 (47.8) n (%)
  TEAE: seizure: 5 (21.7) n (%)
  TEAE: vomiting: 6 (26.1) n (%)
[11]
  Number of Patients with Any TEAE: 39 (100) n (%)
  TEAE: Confusional state: 4 (10.3) n (%)
  TEAE: Gait disturbance: 4 (10.3) n (%)
  TEAE: Gastrointestinal disorder: 4 (10.3) n (%)
  TEAE: Hiccups: 4 (10.3) n (%)
  TEAE: Tremor: 4 (10.3) n (%)
  TEAE: alopecia: 6 (15.4) n (%)
  TEAE: constipation: 11 (28.2) n (%)
  TEAE: decreased appetite: 6 (15.4) n (%)
  TEAE: decreased lymphocyte count: 6 (15.4) n (%)
  TEAE: decreased neutrophil count: 6 (15.4) n (%)
  TEAE: decreased platelet count: 5 (12.8) n (%)
  TEAE: diarrhea: 5 (12.8) n (%)
  TEAE: dry skin: 10 (25.6) n (%)
  TEAE: fall: 9 (23.1) n (%)
  TEAE: fatigue: 7 (17.9) n (%)
  TEAE: headache: 9 (23.1) n (%)
  TEAE: hypertrigly-ceridaemia: 5 (12.8) n (%)
  TEAE: hyponatremia: 5 (12.8) n (%)
  TEAE: increase in blood cholesterol: 4 (10.3) n (%)
  TEAE: increased alanine aminotransferase: 25 (64.1) n (%)
  TEAE: increased aspartate aminotransferase: 13 (33.3) n (%)
  TEAE: maculopapular rash: 4 (10.3) n (%)
  TEAE: nausea: 21 (53.8) n (%)
  TEAE: seizure: 7 (17.9) n (%)
  TEAE: vomiting: 14 (35.9) n (%)
As of September 2023, n=33
  study drug related Grade 3 AEs (dry skin, and rash): 2
  study drug-related SAEs: no study drug-related SAEs reported
From 20 mg QD to 240 mg QD, cutoff April 21, 2024
  dose-limiting toxicities (DLTs): No dose-limiting toxicities (DLTs) were observed
From 20 mg up to 240 mg, as of September 2023
  dose limiting toxicity: No dose limiting toxicity reported
One 20 mg QD, one 120 mg QD, two 180 mg QD, cutoff April 21, 2024
  serious TEAE: seizure: four
